This note sets out measurements from paper PMC8175350, “Drug repurposing screens identify chemical entities for the development of COVID-19 interventions” (Nature Communications, 2021).

Broadly, the EC50 is the concentration giving half of the maximal effect. Broadly, the CC50 is the concentration that lowers cell viability or growth by half.

Several values for one entry are separate records, joined by “and”; a condition that tells them apart may be missing. Equal values may be shown once. Where a name gives a salt, the structure may show the parent alone. Read-outs that look alike come from different tables or passages of the source.

In series [1] the test system is SARS-CoV-2. Type of series: cell-based.
Series [2] concerns SARS-CoV-2. As to the kind of experiment: microbe, parasite or virus in culture. It counts as cell-based. Particulars: for EC50: Severe acute respiratory syndrome coronavirus 2, HeLa-ACE2, read-out: HeLa-ACE2 CoV-2 EC50 GeoMean; for Emax: Severe acute respiratory syndrome coronavirus 2, HeLa-ACE2, 24 h, curve-fit effect at infinite concentration, average, read-out: HeLa-ACE2 CoV-2 Sinf Average.

Series [3] in a line: Uninfected HeLa-ACE2 24 h live/dead cytotoxicity counter screen. It counts as cell-based, human. Conditions: human, uninfected HeLa-ACE2 cells. A general note: Counterscreens check selectivity or assay interference.
In series [4] the test system is HeLa-ACE2 cells. The series is described as above. Conditions: for HeLa-ACE2 uninfected cytotoxicity Sinf Average: curve-fit effect at infinite concentration; for HeLa-ACE2 uninfected cytotoxicity Sinf Average (%): Sinf average of the curves. Type of series: cell-based, human.
The test system of series [5] is SARS-CoV-2. Kind of series: microbe, parasite or virus in culture. It counts as cell-based. Particulars: for Emax: Severe acute respiratory syndrome coronavirus 2, Calu-3, 48 h; for EC50: read-out: Calu-3 CoV-2 EC50 GeoMean.
Series [6] relates to HeLa-ACE2 cells. As to the kind of experiment: cells. Particulars: Homo sapiens; for Emax: HeLa-ACE2, 24 h, read-out: HeLa-ACE2 cell count Sinf Average.
The test system of series [7] is Calu-3 cells. As to the kind of experiment: cells. Particulars: Homo sapiens; for Emax: Calu-3, 48 h.
The nature of series [8]: Uninfected Calu-3 48 h Cell-Titer Glo cytotoxicity counter screen. Conditions: human, uninfected Calu-3 cells, Calu-3 uninfected cytotoxicity CC50 GeoMean, unrounded geometric mean.
Series [9] concerns Calu-3 cells. Described as above. Conditions: for Calu-3 uninfected cytotoxicity Sinf Average: curve-fit effect at infinite concentration; for Calu-3 uninfected cytotoxicity Sinf Average (%): Sinf average of the curves.
Series [10] relates to Calu-3 cells.
A short description of another series: in vitro. Particulars: human.
[11] abbreviates: uninfected cells, Fig. 2b group, read-out: HeLa-ACE2 CC50.
Where [12] appears, read: unrounded geometric mean, read-out: HeLa-ACE2 uninfected cytotoxicity CC50 GeoMean.
Setting [13] is: curve-fit effect at infinite concentration, average, read-out: Calu-3 CoV-2 Sinf Average.
Setting [14] is: Severe acute respiratory syndrome coronavirus 2, Calu-3, unrounded geometric mean.
Where [15] appears, read: HeLa-ACE2, read-out: HeLa-ACE2 cell count EC50 GeoMean, unrounded geometric mean.
[16] abbreviates: read-out: Calu-3 cell count Sinf Average.
Setting [17] is: Calu-3, read-out: Calu-3 cell count EC50 GeoMean, unrounded geometric mean.
Where [18] appears, read: geometric mean of replicates, read-out: HeLa-ACE2 uninfected cytotoxicity CC50 GeoMean.
The mark [19] stands for this setting: Sinf average of the curves, read-out: Calu-3 CoV-2 Sinf Average (%).
Setting [20] is: Severe acute respiratory syndrome coronavirus 2, Calu-3, geometric mean of replicates.
Where [21] appears, read: HeLa-ACE2, read-out: HeLa-ACE2 cell count EC50 GeoMean (µM), geometric mean of replicates.
Setting [22] is: read-out: Calu-3 cell count Sinf Average (%).
[23] abbreviates: Calu-3, read-out: Calu-3 cell count EC50 GeoMean (µM), geometric mean of replicates.
The mark [24] stands for this setting: Calu-3 uninfected cytotoxicity CC50 GeoMean (µM), geometric mean of replicates.
Setting [25] is: Calu-3 uninfected cytotoxicity CC50 GeoMean, unrounded geometric mean.

N6-isopentenyladenosine [Riboprine]: in the series with SARS-CoV-2 [1], the interaction with remdesivir entry was “synergistic (key: additive: Additive effect: -10< δ <10; synergistic effect: δ >10; antagonistic eff ect: δ <10)” and the maximal efficacy turned out to be 100%.
Turning to `COCc1c(C(C)C)nc(C(C)C)c(/C=C/[C@@H](O)C[C@@H](O)CC(=O)O)c1-c1ccc(F)cc1` [Cerivastatin sodium], the EC50 was more than 9590 nM in the series on SARS-CoV-2 [2] (unrounded geometric mean), 348 nM in the series with SARS-CoV-2 [5] (setting [14]), more than 9.59 µM in the series with HeLa-ACE2 cells [6] (setting [15]) and 0.936 µM in the series with Calu-3 cells [7] (setting [17]). The CC50 at 24 h in series [3] (setting [11]) was not above 3000 nM; in series [3] (setting [12]), 308 nM. Also, the “HeLa-ACE2 uninfected cytotoxicity Sinf Average” value with HeLa-ACE2 cells [4] is reported as -74%. Also, the Emax was 63% in the series on SARS-CoV-2 [5] (setting [13]), 100% with HeLa-ACE2 cells [6] and 89% in the series on Calu-3 cells [7] (setting [16]). The compound further had a CC50 at 48 h in series [8] of more than 29900 nM. Besides, in the series on Calu-3 cells [9], the “Calu-3 uninfected cytotoxicity Sinf Average” value was -100%.
`Cn1c(C#N)ccc1-c1ccc2c(c1)C(C)(C)OC(=S)N2` [Tanaproget]: the Emax in the series on SARS-CoV-2 [2] came out at 49%; in the series on SARS-CoV-2 [5] (setting [13]), 87%; in the series with HeLa-ACE2 cells [6], 100%; with Calu-3 cells [7] (setting [16]) it was 98%. Besides, the EC50 with SARS-CoV-2 [2] (unrounded geometric mean) is 141 nM; in the series with SARS-CoV-2 [5] (setting [14]) it was 2440 nM; in the series with HeLa-ACE2 cells [6] (setting [15]) it was more than 9.59 µM; in the series with Calu-3 cells [7] (setting [17]), more than 9.98 µM. Moreover, the CC50 at 24 h in series [3] (setting [11]) is not above 3000 nM; in series [3] (setting [12]), 128 nM. Also, the “HeLa-ACE2 uninfected cytotoxicity Sinf Average” value in the series on HeLa-ACE2 cells [4] was -50%. The “uninfected Calu-3 CC50” value with Calu-3 cells [10] is reported as > 19.278 ×÷ 2.07 (n=3) μM. This compound also returned a cytotoxic concentration (CC50) at 48 h in the series “in vitro” (Calu-3 uninfected cytotoxicity CC50 GeoMean) of more than 19.3 µM. For the same compound, the “Calu-3 uninfected cytotoxicity Sinf Average” value with Calu-3 cells [9] is reported as -100%.
As to `CCOc1ccc(Cc2nc3cc(N(C)S(=O)(=O)c4cccs4)ccc3n2CC2CCCCC2)nc1` [AZ-11713908], the half-maximal effective concentration (EC50) is more than 9590 nM with SARS-CoV-2 [2] (geometric mean of replicates), 3530 nM in the series with SARS-CoV-2 [5] (setting [20]), more than 9.59 µM in the series on HeLa-ACE2 cells [6] (setting [21]) and more than 9.73 µM in the series with Calu-3 cells [7] (setting [23]). In addition, the 50% cytotoxic concentration (CC50) at 24 h in [3] (setting [18]) was more than 33000 nM. For the same compound, the “HeLa-ACE2 uninfected cytotoxicity Sinf Average (%)” value in the series on HeLa-ACE2 cells [4] is -100%. In addition, the results for the Emax in the series with SARS-CoV-2 [5] (setting [19]) and in the series with Calu-3 cells [7] (setting [22]) were 93% and 100%, respectively. This compound also had a CC50 in “in vitro” (setting [24]) of more than 29.9 µM. Besides, in the series on Calu-3 cells [9], the “Calu-3 uninfected cytotoxicity Sinf Average (%)” value is listed as -95%.
In the case of `C=C(C)[C@]12C[C@@H](C)[C@@]34O[C@](Cc5ccccc5)(O[C@@H]1[C@@H]3C=C(COC(=O)Cc1ccc(O)c(OC)c1)C[C@]1(O)C(=O)C(C)=C[C@@H]41)O2` [Resiniferatoxin], the Emax stood at 75% with SARS-CoV-2 [2], 80% in the series with SARS-CoV-2 [5] (setting [13]), 100% with HeLa-ACE2 cells [6] and 75% in the series with Calu-3 cells [7] (setting [16]). Also, the EC50 with SARS-CoV-2 [2] (unrounded geometric mean) was more than 1300 nM; in the series on SARS-CoV-2 [5] (setting [14]), 903 nM; in the series with HeLa-ACE2 cells [6] (setting [15]), more than 8.34 µM; in the series with Calu-3 cells [7] (setting [17]), more than 2.87 µM. In addition, the CC50 at 24 h in series [3] (setting [12]) is 7170 nM. The “HeLa-ACE2 uninfected cytotoxicity Sinf Average” value in the series with HeLa-ACE2 cells [4] is listed as -100%. For the same compound, it took 17.3 µM to reach half-maximal cytotoxicity in the series “in vitro” (setting [25]) (CC50). The “Calu-3 uninfected cytotoxicity Sinf Average” value with Calu-3 cells [9] is recorded as -100%.
On to `O=C(Nc1ccc(Cl)c(S(=O)(=O)N2CCNCC2)c1O)Nc1cccc(F)c1Cl` [Elubrixin tosylate], for which the EC50 was more than 9590 nM in the series on SARS-CoV-2 [2] (geometric mean of replicates), 6910 nM with SARS-CoV-2 [5] (setting [20]), more than 9.59 µM in the series on HeLa-ACE2 cells [6] (setting [21]) and more than 9.98 µM in the series with Calu-3 cells [7] (setting [23]). In [3] (setting [18]), the CC50 at 24 h was more than 39800 nM. Further, in the series on HeLa-ACE2 cells [4], the “HeLa-ACE2 uninfected cytotoxicity Sinf Average (%)” value was -100%. Besides, the values for the Emax in the series with SARS-CoV-2 [5] (setting [19]) and in the series on Calu-3 cells [7] (setting [22]) were 100% and 67%, respectively. The CC50 at 48 h in “in vitro” (setting [24]) is more than 29.6 µM. Moreover, the “Calu-3 uninfected cytotoxicity Sinf Average (%)” value with Calu-3 cells [9] is listed as -100%.
On to `COC(=O)[C@@]12OC[C@]34[C@H]([C@@H](O)[C@@H]1O)[C@@]1(C)CC(=O)C(O)=C(C)[C@@H]1C[C@H]3OC(=O)[C@H](OC(=O)/C=C(\C)C(C)C)[C@@H]24` [Bruceantin], for which the Emax in the series on SARS-CoV-2 [2] is 98%; in the series on SARS-CoV-2 [5] (setting [13]), 99%; in the series on HeLa-ACE2 cells [6] it was 99%; with Calu-3 cells [7] (setting [16]) it was -100%. The 50% effective concentration (EC50) with SARS-CoV-2 [2] (unrounded geometric mean) was 5.78 nM; in the series with SARS-CoV-2 [5] (setting [14]) it was 19.4 nM; in the series on HeLa-ACE2 cells [6] (setting [15]), 0.0968 µM; with Calu-3 cells [7] (setting [17]), more than 6.92 µM. Also, the CC50 at 24 h in [3] (setting [11]) is not above 3000 nM; in series [3] (setting [12]) it was less than 117 nM. Also, the “HeLa-ACE2 uninfected cytotoxicity Sinf Average” value in the series with HeLa-ACE2 cells [4] is recorded as -100%. For the same compound, the CC50 in the series “in vitro” (setting [25]) was determined as 0.973 µM. Further, in the series on Calu-3 cells [9], the “Calu-3 uninfected cytotoxicity Sinf Average” value is -53%.
Regarding `Nc1nc(N)c2nc(CCc3ccc(C(=O)N[C@@H](CCC(=O)O)C(=O)O)cc3)cnc2n1` [10-deazaaminopterin], the interaction with remdesivir result in the series with SARS-CoV-2 [1] (ZIP model) was “synergistic (synergistic effect: δ >10)”. The “dose-response point, normalized infected cells” value with SARS-CoV-2 [1] (alone, Concentration [uM] -9.01818) was 8.312 and 15.4845 and 9.998. Besides, the maximal efficacy is 40% in the series with SARS-CoV-2 [1] (compound alone), approximately 65% in the series with SARS-CoV-2 [1] (with EC2 of remdesivir) and more than 80% in the series with SARS-CoV-2 [1] (with EC24 of remdesivir).
